Test results as given in US20200397818A1, “Multi-Mineral Supplement for Improved Bone Density” (priority 2017, published 2020).

Tested on: human mescenchymal stem cell (hMSCs)
Settings: MTT
Procedure: The MTT colorimetric cell viability provides a straightforward and quantifiable method for determining cell viability in a wide variety of cell types. An MTT assay was used to determine the cytotoxicity of Mg, Sr, Cu, and/or Zn ions in human mescenchymal stem cells. In a typical assay 2.8×10^4 cells/cm^2 human mescenchymal stem cell (hMSCs) were cultured in a low glucose DMEM culture medium supplemented with 10% (v/v) fetal bovine serum (FBS, Biowest, France), antibiotics (100 U/ml of penicillin and 100 μg/ml of streptomycin), and 2 mM L-glutamine using 96-well tissue culture plates. After one day of cell culture, testing solutions with a range of concentrations (Table 1) of different potential ions were added to the wells. The MTT solution was prepared by adding thiazolyl blue tetrazolium bromide powder to the phosphate buffered saline (PBS, OXOID Limited, England) and 10 μL of 5 mg/mL MTT solution was added on the next day. 100 μL of 10% sodium dodecyl sulfate (SDS, Sigma, USA) in 0.01 M hydrochloric acid was added to each well after four hours of culturing and incubated at 37° C. in an atmosphere of 5% CO2 and 95% air overnight. Finally, the absorbance was recorded by a multimode detector at a wavelength of 570 nm with a reference wavelength of 640 nm. Cell viability was quantified from the absorbance readings.

With `O=S(=O)([O-])[O-].[Cu+2]` [Cu ions, CuSO4] the “ion concentration with loss of viability” value (ion tested independently) was at least 25 ppm.

With `[Cl-].[Cl-].[Mg+2]` [Mg ion, MgCl2] the “ion concentration above which most of the cells became non-viable” value (ion tested independently) was “exceeded 1000 ppm” and the “ion concentration above which viability began to decrease” value (ion tested independently) was “exceeded 400 ppm”.

For `[Cl-].[Cl-].[Sr+2]` [Sr ion, SrCl2], the “cell viability relative to control cells” value (ion concentrations of 100 to 400 ppm) was 115% and the cell viability (treatment with up to 1,000 ppm) was about 100%.

With `[Cl-].[Cl-].[Zn+2]` [Zn ions, ZnCl2] the “ion concentration above which significant cell death was found” value (ion tested independently) was “exceeded 1 ppm”.
